Each structure is given as a SMILES string. pEC50: −log10 of the molar value.

This is an account of results in patent US20240208992A1, “MACROCYCLES AS CFTR MODULATORS” (Idorsia Pharmaceuticals Ltd, priority 2021, published 2024).

The experiment has as its target human F508del-CFTR (Homo sapiens, UniProt P13569, DEL508-508). As to the kind of experiment: F508del-CFTR cell surface expression (corrector activity), DiscoveRx ß-galactosidase complementation chemiluminescence assay in recombinant U2OS cell line.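 For all read-outs here: U2OS cells co-expressing ProLink-tagged F508del-CFTR and a membrane-anchored enzyme acceptor, where more surface CFTR restores β-galactosidase activity measured by chemiluminescence.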 As to conditions: for pEC50: EC50, F508del-CFTR cell surface expression, U2OS cells, 16h compound incubation, geomean values; for Emax: U2OS, in relation to Emax of corrector lumacaftor (=100%), arithmetic mean values.

Sequence of human F508del-CFTR (P13569 with tags, fused parts or gaps DEL508-508): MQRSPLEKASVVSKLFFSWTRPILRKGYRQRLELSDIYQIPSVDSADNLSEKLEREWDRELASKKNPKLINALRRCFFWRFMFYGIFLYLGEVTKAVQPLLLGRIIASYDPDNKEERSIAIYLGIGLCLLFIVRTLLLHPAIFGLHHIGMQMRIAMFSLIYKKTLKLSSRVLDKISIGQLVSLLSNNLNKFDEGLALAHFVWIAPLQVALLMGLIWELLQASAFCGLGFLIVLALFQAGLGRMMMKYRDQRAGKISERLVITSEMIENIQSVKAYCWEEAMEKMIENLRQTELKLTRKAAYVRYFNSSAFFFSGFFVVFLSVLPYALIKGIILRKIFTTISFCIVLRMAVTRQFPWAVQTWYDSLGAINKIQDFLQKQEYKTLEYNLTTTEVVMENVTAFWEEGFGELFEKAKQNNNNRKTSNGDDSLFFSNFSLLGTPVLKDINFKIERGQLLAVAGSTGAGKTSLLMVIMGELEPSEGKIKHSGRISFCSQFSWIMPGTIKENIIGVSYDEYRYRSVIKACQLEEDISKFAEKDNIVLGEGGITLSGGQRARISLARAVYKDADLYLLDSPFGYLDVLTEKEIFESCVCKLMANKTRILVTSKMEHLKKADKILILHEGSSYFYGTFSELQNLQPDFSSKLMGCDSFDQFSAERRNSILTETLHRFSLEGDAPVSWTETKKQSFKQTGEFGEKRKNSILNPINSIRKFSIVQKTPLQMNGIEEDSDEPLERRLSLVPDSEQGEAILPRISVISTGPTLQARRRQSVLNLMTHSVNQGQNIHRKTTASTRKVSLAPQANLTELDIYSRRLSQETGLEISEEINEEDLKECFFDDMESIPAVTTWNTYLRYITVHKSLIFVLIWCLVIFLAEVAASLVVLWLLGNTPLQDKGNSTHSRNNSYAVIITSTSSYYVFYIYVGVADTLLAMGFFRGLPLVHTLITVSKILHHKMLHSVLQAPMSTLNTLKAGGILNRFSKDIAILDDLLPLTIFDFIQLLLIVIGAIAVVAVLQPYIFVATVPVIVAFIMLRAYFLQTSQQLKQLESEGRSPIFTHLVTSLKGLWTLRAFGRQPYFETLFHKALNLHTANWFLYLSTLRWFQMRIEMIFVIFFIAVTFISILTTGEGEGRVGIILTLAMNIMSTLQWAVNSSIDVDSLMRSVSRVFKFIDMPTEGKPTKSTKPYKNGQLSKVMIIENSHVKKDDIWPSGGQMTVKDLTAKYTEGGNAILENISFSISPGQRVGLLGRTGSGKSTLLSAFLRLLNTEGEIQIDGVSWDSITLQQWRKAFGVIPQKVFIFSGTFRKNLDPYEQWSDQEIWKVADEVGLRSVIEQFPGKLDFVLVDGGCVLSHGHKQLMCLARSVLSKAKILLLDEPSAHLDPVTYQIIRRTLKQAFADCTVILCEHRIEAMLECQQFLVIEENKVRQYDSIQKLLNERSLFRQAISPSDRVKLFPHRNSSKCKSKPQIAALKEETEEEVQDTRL

One may read the pEC50 as −log10 of the EC50, conventionally taken in molar units. What is called Emax is the size of the effect at its maximum, as opposed to the concentration needed. Consider `COc1cccc(CCNC(=O)[C@@H]2CC(=O)N(C)[C@@H](CC(C)C)C(=O)N3CCN(CCCO)C[C@@H]3C(=O)N[C@H](Cc3ccccc3)COc3ccc4ccccc4c3C(=O)N2)c1` [Example 451, (4aR,7R,18S,22S)-7-benzyl-3-(3-hydroxypropyl)-22-isobutyl-N-(3-methoxyphenethyl)-21-methyl-5,16,20,23-tetraoxo-2,3,4,4a,5,6,7,8,16,17,18,19,20,21,22,23-hexadecahydro-1H-naphtho[1,2-p]pyrazino[2,1-f][1]oxa[4,7,10,14]tetraazacycloheptadecine-18-carboxamide], for which the pEC50 is 6.59 and the Emax came out at 307%.

For the compound `Cc1cc(CCNC(=O)[C@@H]2CC(=O)N(C)[C@@H](CC(C)C)C(=O)N3CCN(CCCO)C[C@@H]3C(=O)N[C@H](Cc3ccccc3)COc3ccc4ccccc4c3C(=O)N2)on1` [Example 452, (4aR,7R,18S,22S)-7-benzyl-3-(3-hydroxypropyl)-22-isobutyl-21-methyl-N-(2-(3-methylisoxazol-5-yl)ethyl)-5,16,20,23-tetraoxo-2,3,4,4a,5,6,7,8,16,17,18,19,20,21,22,23-hexadecahydro-1H-naphtho[1,2-p]pyrazino[2,1-f][1]oxa[4,7,10,14]tetraazacycloheptadecine-18-carboxamide], the negative-log EC50 (pEC50) was 6.05 and the maximal effect (Emax) stood at 292%.

For `CC(C)C[C@H]1C(=O)N(C)C2(CC2)C(=O)N[C@H](Cc2ccccc2)COc2cnc3ccccc3c2C(=O)N[C@H](C(=O)NCCc2cccc(-n3nccn3)c2)CC(=O)N1C` [Example 453, (3′S,7′S,13′R)-N-(3-(2H-1,2,3-triazol-2-yl)phenethyl)-13′-benzyl-7′-isobutyl-6′,9′-dimethyl-1′,5′,8′,11′-tetraoxo-2′,3′,4′,5′,6′,7′,8′,9′,11′,12′,13′,14′-dodecahydro-1′H-spiro[cyclopropane-1,10′-[1]oxa[4,7,10,14]tetraazacycloheptadecino[17,16-c]quinoline]-3′-carboxamide], the negative-log EC50 (pEC50) is 6.38 and the Emax worked out at 251%.

As for `CC(C)C[C@H]1C(=O)N(C)C2(CC2)C(=O)N[C@H](Cc2ccccc2)COc2cnc3ccccc3c2C(=O)N[C@H](C(=O)NCCc2ccc(-n3nccn3)cc2)CC(=O)N1C` [Example 454, (3′S,7′S,13′R)-N-(4-(2H-1,2,3-triazol-2-yl)phenethyl)-13′-benzyl-7′-isobutyl-6′,9′-dimethyl-1′,5′,8′,11′-tetraoxo-2′,3′,4′,5′,6′,7′,8′,9′,11′,12′,13′,14′-dodecahydro-1′H-spiro[cyclopropane-1,10′-[1]oxa[4,7,10,14]tetraazacycloheptadecino[17,16-c]quinoline]-3′-carboxamide], the pEC50 was 6.63 and the Emax is 236%.

In the case of `Cc1cc(CCNC(=O)[C@@H]2CC(=O)N(C)[C@@H](CC(C)C)C(=O)N3CCCC[C@@H]3C(=O)N[C@H](Cc3ccccc3)COc3ccc4c(c3C(=O)N2)OCC4)on1` [Example 455, (8S,12S,18aR,21R)-21-benzyl-12-isobutyl-11-methyl-N-(2-(3-methylisoxazol-5-yl)ethyl)-6,10,13,19-tetraoxo-3,4,6,7,8,9,10,11,12,13,16,17,18,18a,19,20,21,22-octadecahydro-15H-benzofuro[7,6-p]pyrido[2,1-f][1]oxa[4,7,10,14]tetraazacycloheptadecine-8-carboxamide], the pEC50 was 6.17 and the Emax came out at 211%.

Turning to `COc1cccc(CCNC(=O)[C@@H]2CC(=O)N(C)[C@@H](CC(C)C)C(=O)N3CCCC[C@@H]3C(=O)N[C@H](Cc3ccccc3)COc3ccc4c(c3C(=O)N2)OCC4)c1` [Example 456, (8S,12S,18aR,21R)-21-benzyl-12-isobutyl-N-(3-methoxyphenethyl)-11-methyl-6,10,13,19-tetraoxo-3,4,6,7,8,9,10,11,12,13,16,17,18,18a,19,20,21,22-octadecahydro-15H-benzofuro[7,6-p]pyrido[2,1-f][1]oxa[4,7,10,14]tetraazacycloheptadecine-8-carboxamide], the pEC50 is 6.60 and the Emax is 185%.

On to `COCCN1C(=O)[C@H](CC(C)C)N(C)C(=O)C[C@@H](C(=O)NCCc2cccc(OC)c2)NC(=O)c2c(ccc3ccccc23)OC[C@@H](Cc2ccccc2)NC(=O)C12CC2` [Example 457, (3′S,7′S,13′R)-13′-benzyl-7′-isobutyl-9′-(2-methoxyethyl)-N-(3-methoxyphenethyl)-6′-methyl-1′,5′,8′,11′-tetraoxo-2′,3′,4′,5′,6′,7′,8′,9′,11′,12′,13′,14′-dodecahydro-1′H-spiro[cyclopropane-1,10′-naphtho[1,2-p][1]oxa[4,7,10,14]tetraazacycloheptadecine]-3′-carboxamide], for which the pEC50 is 6.49 and the Emax turned out to be 144%.

Turning to `Cc1cc(CCNC(=O)[C@@H]2CC(=O)N(C)[C@@H](CC(C)C)C(=O)N3CCN(C(=O)OCC(Cl)(Cl)Cl)C[C@@H]3C(=O)N[C@H](Cc3ccccc3)COc3cnc4ccccc4c3C(=O)N2)on1` [Example 458, 2,2,2-trichloroethyl (9S,13S,19aR,22R)-22-benzyl-13-isobutyl-12-methyl-9-((2-(3-methylisoxazol-5-yl)ethyl)carbamoyl)-7,11,14,20-tetraoxo-7,8,9,10,11,12,13,14,16,17,19,19a,20,21,22,23-hexadecahydro-18H-pyrazino[2′,1′:6,7][1]oxa[4,7,10,14]tetraazacycloheptadecino[17,16-c]quinoline-18-carboxylate], the pEC50 was 6.68 and the maximum response (Emax) stood at 238%.

Take `COc1cccc(CCNC(=O)[C@@H]2CC(=O)N(C)[C@@H](CC(C)C)C(=O)N3CCN(C)C[C@@H]3C(=O)N[C@H](Cc3ccccc3)COc3cnc4ccccc4c3C(=O)N2)c1` [Example 459, (9S,13S,19aR,22R)-22-benzyl-13-isobutyl-N-(3-methoxyphenethyl)-12,18-dimethyl-7,11,14,20-tetraoxo-7,8,9,10,11,12,13,14,17,18,19,19a,20,21,22,23-hexadecahydro-16H-pyrazino[2′,11:6,7][1]oxa[4,7,10,14]tetraazacycloheptadecino[17,16-c]quinoline-9-carboxamide]: the pEC50 was 6.14 and the Emax turned out to be 390%.

In the case of `COc1cccc(CCNC(=O)[C@@H]2CC(=O)N(C)[C@@H](CC(C)C)C(=O)N(C)C3(CC3)C(=O)N[C@H](Cc3ccccc3)COc3ccc4ncccc4c3C(=O)N2)c1` [Example 460, (3′S,7′S,13′R)-13′-benzyl-7′-isobutyl-N-(3-methoxyphenethyl)-6′,9′-dimethyl-1′,5′,8′,11′-tetraoxo-2′,3′,4′,5′,6′,7′,8′,9′,11′,12′,13′,14′-dodecahydro-1′H-spiro[cyclopropane-1,10′-[1]oxa[4,7,10,14]tetraazacycloheptadecino[16,17-f]quinoline]-3′-carboxamide], the negative logarithm of the EC50 (pEC50) is 6.51 and the maximum response (Emax) came out at 398%.

As to `CC(C)C[C@H]1C(=O)N2CCCC[C@@H]2C(=O)N[C@H](Cc2ccccc2)COc2cnc3ccccc3c2C(=O)N[C@H](C(=O)NCCc2cccc(-n3nccn3)c2)CC(=O)N1C` [Example 461, (9S,13S,19aR,22R)-N-(3-(2H-1,2,3-triazol-2-yl)phenethyl)-22-benzyl-13-isobutyl-12-methyl-7,11,14,20-tetraoxo-7,8,9,10,11,12,13,14,17,18,19,19a,20,21,22,23-hexadecahydro-16H-pyrido[2′,1′:6,7][1]oxa[4,7,10,14]tetraazacycloheptadecino[17,16-c]quinoline-9-carboxamide], the pEC50 was 6.35 and the maximum response (Emax) was 262%.

Regarding `CC(C)C[C@H]1C(=O)N2CCCC[C@H]2C(=O)N[C@H](Cc2ccccc2)COc2cnc3ccccc3c2C(=O)N[C@H](C(=O)NCCc2cccc(-n3nccn3)c2)CC(=O)N1C` [Example 462, (9S,13S,19aS,22R)-N-(3-(2H-1,2,3-triazol-2-yl)phenethyl)-22-benzyl-13-isobutyl-12-methyl-7,11,14,20-tetraoxo-7,8,9,10,11,12,13,14,17,18,19,19a,20,21,22,23-hexadecahydro-16H-pyrido[2′,1′:6,7][1]oxa[4,7,10,14]tetraazacycloheptadecino[17,16-c]quinoline-9-carboxamide], the negative-log EC50 (pEC50) is 6.46 and the Emax was found to be 130%.

Take `CC(C)C[C@H]1C(=O)N2CCCC[C@@H]2C(=O)N[C@H](Cc2ccccc2)COc2cnc3ccccc3c2C(=O)N[C@H](C(=O)NCCc2ccc(-n3nccn3)cc2)CC(=O)N1C` [Example 463, (9S,13S,19aR,22R)-N-(4-(2H-1,2,3-triazol-2-yl)phenethyl)-22-benzyl-13-isobutyl-12-methyl-7,11,14,20-tetraoxo-7,8,9,10,11,12,13,14,17,18,19,19a,20,21,22,23-hexadecahydro-16H-pyrido[2′,1′:6,7][1]oxa[4,7,10,14]tetraazacycloheptadecino[17,16-c]quinoline-9-carboxamide]: the pEC50 was 6.56 and the maximal response (Emax) stood at 269%.

For the compound `CC(C)C[C@H]1C(=O)N2CCCC[C@H]2C(=O)N[C@H](Cc2ccccc2)COc2cnc3ccccc3c2C(=O)N[C@H](C(=O)NCCc2ccc(-n3nccn3)cc2)CC(=O)N1C` [Example 464, (9S,13S,19aS,22R)-N-(4-(2H-1,2,3-triazol-2-yl)phenethyl)-22-benzyl-13-isobutyl-12-methyl-7,11,14,20-tetraoxo-7,8,9,10,11,12,13,14,17,18,19,19a,20,21,22,23-hexadecahydro-16H-pyrido[2′,1′:6,7][1]oxa[4,7,10,14]tetraazacycloheptadecino[17,16-c]quinoline-9-carboxamide], the negative logarithm of the EC50 (pEC50) is 6.50 and the Emax is 109%.

For `COc1cccc(CCNC(=O)[C@@H]2CC(=O)N(C)[C@@H](CC(C)C)C(=O)N(C)CC(=O)N[C@H](Cc3ccccc3)COc3ccc4cnccc4c3C(=O)N2)c1` [Example 465], the negative-log EC50 (pEC50) is 6.10 and the Emax was 387%.
